Results from the NIST ThermoML archive (doi:10.1016/j.fluid.2004.09.013).
Numbers after ± are expanded uncertainties.

Settings: for mass density: Fluid (supercritical or subcritical phases), Vibrating tube method

C=C(C)C [2-methylpropene]
Settings	Critical density [kg/m3]	mass density [kg/m3]
458.25 K, 5017 kPa	–	125.47 ± 0.61
458.25 K, 9993 kPa	–	351.66 ± 0.85
458.25 K, 14983 kPa	–	408.65 ± 0.92
458.25 K, 19987 kPa	–	439.63 ± 1
458.25 K, 25004 kPa	–	461.27 ± 1.1
458.25 K, 29988 kPa	–	478.03 ± 1.2
458.25 K, 34987 kPa	–	491.88 ± 1.3
463.25 K, 5016 kPa	–	119.04 ± 0.59
463.25 K, 9981 kPa	–	338.41 ± 0.82
463.25 K, 14994 kPa	–	400.72 ± 0.91
463.25 K, 19983 kPa	–	433.24 ± 1
463.25 K, 25001 kPa	–	455.8 ± 1.1
463.25 K, 29987 kPa	–	473.13 ± 1.2
463.25 K, 34998 kPa	–	487.42 ± 1.3
463.25 K, 39991 kPa	–	499.76 ± 1.4
468.25 K, 5015 kPa	–	113.61 ± 0.57
468.25 K, 9993 kPa	–	325.38 ± 0.8
468.25 K, 14991 kPa	–	392.57 ± 0.89
468.25 K, 19999 kPa	–	426.94 ± 0.99
468.25 K, 24992 kPa	–	450.29 ± 1.1
468.25 K, 29998 kPa	–	468.26 ± 1.2
468.25 K, 34985 kPa	–	482.91 ± 1.3
473.25 K, 5018 kPa	–	109.13 ± 0.55
473.25 K, 9986 kPa	–	311.87 ± 0.77
473.25 K, 14992 kPa	–	384.37 ± 0.88
473.25 K, 20001 kPa	–	420.52 ± 0.98
473.25 K, 24988 kPa	–	444.78 ± 1.1
473.25 K, 29996 kPa	–	463.37 ± 1.2
473.25 K, 34999 kPa	–	478.46 ± 1.2
478.25 K, 5019 kPa	–	105.12 ± 0.52
478.25 K, 9988 kPa	–	298.62 ± 0.74
478.25 K, 14996 kPa	–	376.12 ± 0.86
478.25 K, 19999 kPa	–	414.08 ± 0.97
478.25 K, 24987 kPa	–	439.29 ± 1.1
478.25 K, 30005 kPa	–	458.51 ± 1.1
478.25 K, 34997 kPa	–	474 ± 1.2
483.25 K, 5019 kPa	–	101.57 ± 0.5
483.25 K, 9988 kPa	–	285.6 ± 0.72
483.25 K, 14984 kPa	–	367.69 ± 0.84
483.25 K, 19990 kPa	–	407.57 ± 0.95
483.25 K, 24996 kPa	–	433.89 ± 1.1
483.25 K, 29989 kPa	–	453.63 ± 1.1
483.25 K, 35003 kPa	–	469.59 ± 1.2
488.24 K, 4981 kPa	–	97.35 ± 0.48
488.24 K, 20000 kPa	–	401.24 ± 0.94
488.25 K, 9987 kPa	–	273.08 ± 0.69
488.25 K, 14983 kPa	–	359.4 ± 0.83
488.25 K, 24997 kPa	–	428.38 ± 1
488.25 K, 30002 kPa	–	448.75 ± 1.1
488.25 K, 35005 kPa	–	465.15 ± 1.2
493.24 K, 4981 kPa	–	94.56 ± 0.46
493.24 K, 9988 kPa	–	261.21 ± 0.67
493.24 K, 14986 kPa	–	351.12 ± 0.81
493.24 K, 19989 kPa	–	394.84 ± 0.93
493.24 K, 24992 kPa	–	422.89 ± 1
493.24 K, 30006 kPa	–	443.91 ± 1.1
493.24 K, 35002 kPa	–	460.71 ± 1.2
498.24 K, 5019 kPa	–	92.91 ± 0.44
498.24 K, 19995 kPa	–	387.94 ± 0.91
498.24 K, 30000 kPa	–	439.07 ± 1.1
498.25 K, 9984 kPa	–	249.88 ± 0.64
498.25 K, 14995 kPa	–	342.92 ± 0.8
498.25 K, 24992 kPa	–	417.4 ± 1
498.25 K, 34999 kPa	–	456.28 ± 1.2
503.24 K, 4997 kPa	–	90.01 ± 0.42
503.24 K, 9991 kPa	–	239.72 ± 0.62
503.24 K, 14990 kPa	–	334.64 ± 0.78
503.24 K, 19984 kPa	–	381.57 ± 0.9
503.24 K, 24988 kPa	–	411.94 ± 1
503.24 K, 30005 kPa	–	434.24 ± 1.1
503.24 K, 34991 kPa	–	451.87 ± 1.2
503.24 K, 39995 kPa	–	466.57 ± 1.3
508.24 K, 5016 kPa	–	88.26 ± 0.4
508.24 K, 9990 kPa	–	230.13 ± 0.6
508.24 K, 14990 kPa	–	326.56 ± 0.77
508.24 K, 19994 kPa	–	375.29 ± 0.89
508.24 K, 24991 kPa	–	406.52 ± 0.99
508.24 K, 30000 kPa	–	429.41 ± 1.1
508.24 K, 34996 kPa	–	447.5 ± 1.2
508.24 K, 39992 kPa	–	462.51 ± 1.3
513.24 K, 5016 kPa	–	86.21 ± 0.39
513.24 K, 9990 kPa	–	221.29 ± 0.58
513.24 K, 14992 kPa	–	318.59 ± 0.75
513.24 K, 19996 kPa	–	368.96 ± 0.88
513.24 K, 24989 kPa	–	401.13 ± 0.98
513.24 K, 30003 kPa	–	424.62 ± 1.1
513.24 K, 35008 kPa	–	443.17 ± 1.2
513.24 K, 39996 kPa	–	458.53 ± 1.3
518.23 K, 5016 kPa	–	84.36 ± 0.37
518.24 K, 9992 kPa	–	213.29 ± 0.56
518.24 K, 14986 kPa	–	310.73 ± 0.74
518.24 K, 19995 kPa	–	362.67 ± 0.87
518.24 K, 24992 kPa	–	395.78 ± 0.97
518.24 K, 29993 kPa	–	419.86 ± 1.1
518.24 K, 34991 kPa	–	438.82 ± 1.2
518.24 K, 39999 kPa	–	454.51 ± 1.3
523.23 K, 5019 kPa	–	82.65 ± 0.36
523.23 K, 9982 kPa	–	205.67 ± 0.57
523.23 K, 14990 kPa	–	303.2 ± 0.77
523.23 K, 19986 kPa	–	356.38 ± 0.86
523.23 K, 24989 kPa	–	390.45 ± 0.97
523.23 K, 29998 kPa	–	415.17 ± 1.1
523.23 K, 39987 kPa	–	450.55 ± 1.2
523.24 K, 34992 kPa	–	434.55 ± 1.2
Liquid, visual observation in a variable volume cell:FP	233.97 ± 4.7	–

Liquid
Settings	Critical pressure [kPa]	Critical temperature [K]
–	4009.8 ± 11	418.09 ± 0.11
